Results reported in US9169254B2, “Spiroimidazolone derivative” (Chugai Seiyaku Kabushiki Kaisha, priority 2009, dated 2015).

Target: T1, human PTH1 receptor (Homo sapiens, UniProt Q03431)
T1 sequence (Q03431 27-593): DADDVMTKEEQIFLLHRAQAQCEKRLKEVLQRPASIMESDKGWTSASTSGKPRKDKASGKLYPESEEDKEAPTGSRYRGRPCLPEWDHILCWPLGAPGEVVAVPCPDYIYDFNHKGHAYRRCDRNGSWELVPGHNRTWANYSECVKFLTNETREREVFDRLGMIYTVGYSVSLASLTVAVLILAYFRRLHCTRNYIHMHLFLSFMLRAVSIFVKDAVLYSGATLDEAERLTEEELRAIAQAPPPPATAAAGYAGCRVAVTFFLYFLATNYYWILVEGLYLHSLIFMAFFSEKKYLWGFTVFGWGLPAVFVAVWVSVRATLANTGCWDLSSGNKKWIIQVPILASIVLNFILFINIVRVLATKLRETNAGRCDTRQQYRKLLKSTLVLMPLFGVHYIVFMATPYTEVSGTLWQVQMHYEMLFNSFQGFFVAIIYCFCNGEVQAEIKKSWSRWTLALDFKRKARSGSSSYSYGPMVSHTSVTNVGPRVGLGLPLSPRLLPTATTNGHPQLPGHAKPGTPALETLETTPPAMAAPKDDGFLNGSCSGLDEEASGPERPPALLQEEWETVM
Experiment: In vitro cAMP signal activity in HKRK-B7 cells (LLC-PK1 cells overexpressing the human PTH1 receptor)
Type: cell-based
Details: HKRK-B7 cells; compound at 1×10^−3 M; cAMP produced as percentage of that produced by hPTH(1-34) at 100 nM

| Compound | cAMP production activity (%) |
| --- | --- |
| COc1cccc(/C=C/S(=O)(=O)N2CCC3(CC2)N=C([C@H]2CC[C@H](C)CC2)NC3=O)c1C [Compound 585, 8-[(E)-2-(3-methoxy-2-methyl-phenyl)-ethenesulfonyl]-2-(4-methyl-cyclohexyl)-1,3,8-triaza-spiro[4.5]dec-1-en-4-one] | 39 |
| CC(=O)N(CCO)c1cc(C)c(/C=C/S(=O)(=O)N2CCC3(CC2)N=C(c2cccc(OC(F)(F)F)c2)NC3=O)cc1F [Compound 717, N-(2-Fluoro-5-methyl-4-{(E)-2-[4-oxo-2-(3-trifluoromethoxy-phenyl)-1,3,8-triaza-spiro[4.5]dec-1-ene-8-sulfonyl]-vinyl}-phenyl)-N-(2-hydroxy-ethyl)-acetamide] | 111 |
| Cc1cc(C(=O)O)cc(C)c1/C=C/S(=O)(=O)N1CCC2(CC1)N=C(C1CCC(CCC(F)(F)F)CC1)NC2=O (centres unmarked) [Compound 547, 3,5-dimethyl-4-((E)-2-{4-oxo-2-[4-(3,3,3-trifluoro-propyl)-cyclohexyl]-1,3,8-triaza-spiro[4.5]dec-1-ene-8-sulfonyl}-vinyl)-benzoic acid] | 52 |
| Cc1cc(C(=O)N2CCC(C)(O)CC2)cc(C)c1/C=C/S(=O)(=O)N1CCC2(CC1)N=C(c1ccc(OCC(F)(F)C(F)F)c(Cl)c1)NC2=O [Compound 1201, 2-[3-chloro-4-(2,2,3,3-tetrafluoro-propoxy)-phenyl]-8-{(E)-2-[4-(4-hydroxy-4-methyl-piperidine-1-carbonyl)-2,6-dimethyl-phenyl]-ethenesulfonyl}-1,3,8-triaza-spiro[4.5]dec-1-en-4-one] | 77 |
| Cc1cc(C(=O)N(C)C)ccc1CCS(=O)(=O)N1CCC2(CC1)N=C(c1ccc(C(F)(F)F)cc1)NC2=O [Compound 75, 3,N,N-trimethyl-4-{2-[4-oxo-2-(4-trifluoromethyl-phenyl)-1,3,8-triaza-spiro[4.5]dec-1-ene-8-sulfonyl]-ethyl}-benzamide] | 75 |
| CN(C)C(=O)Cn1ccc2c(/C=C/S(=O)(=O)N3CCC4(CC3)N=C(C3CCCCC3)NC4=O)cccc21 [Compound 193, 2-{4-[(E)-2-(2-cyclohexyl-4-oxo-1,3,8-triaza-spiro[4.5]dec-1-ene-8-sulfonyl)-vinyl]-indol-1-yl}-N,N-dimethyl-acetamide] | 65 |
| Cc1cc(N(C)C(=O)N(C)C)cc(C)c1/C=C/S(=O)(=O)N1CCC2(CC1)N=C(c1cccc(OC(F)(F)F)c1)NC2=O [Compound 1013, 1-(3,5-Dimethyl-4-{(E)-2-[4-oxo-2-(3-trifluoromethoxy-phenyl)-1,3,8-triaza-spiro[4.5]dec-1-ene-8-sulfonyl]-vinyl}-phenyl)-1,3,3-trimethyl-urea] | 48 |
| Cc1cc(C(=O)N(C)C)ccc1CCS(=O)(=O)N1CCC2(CC1)N=C(c1ccc(OC(F)F)cc1)NC2=O [Compound 118, 4-{2-[2-(4-difluoromethoxy-phenyl)-4-oxo-1,3,8-triaza-spiro[4.5]dec-1-ene-8-sulfonyl]-ethyl}-3,N,N-trimethyl-benzamide] | 73 |
| O=C1NC(C2CCCCC2)=NC12CCN(S(=O)(=O)c1cc3ccccc3s1)CC2 [Compound 54, 8-(benzo[b]thiophene-2-sulfonyl)-2-cyclohexyl-1,3,8-triaza-spiro[4.5]dec-1-en-4-one] | 35 |
| Cc1cc(NCC(=O)NCCN(C)C)ccc1CCS(=O)(=O)N1CCC2(CC1)N=C(c1cccc(OC(F)(F)F)c1)NC2=O [Compound 665, N-(2-Dimethylamino-ethyl)-2-(3-methyl-4-{2-[4-oxo-2-(3-trifluoromethoxy-phenyl)-1,3,8-triaza-spiro[4.5]dec-1-ene-8-sulfonyl]-ethyl}-phenylamino)-acetamide] | 54 |
| Cc1cc(C(=O)N(C)C)ccc1CCS(=O)(=O)N1CCC2(CC1)N=C(C1CCC(CCCC(F)(F)F)CC1)NC2=O (centres unmarked) [Compound 897, 3,N,N-trimethyl-4-(2-{4-oxo-2-[4-(4,4,4-trifluoro-butyl)-cyclohexyl]-1,3,8-triaza-spiro[4.5]dec-1-ene-8-sulfonyl}-ethyl)-benzamide] | 85 |
